# Results reported in ChEMBL document CHEMBL4425159, “Design, synthesis and antimalarial evaluation of novel thiazole derivatives” (Bioorg Med Chem Lett, 2016).
# pIC50: −log10 of the molar value.
# Experiments:
# Plasmodium falciparum = assay: Antimalarial activity against chloroquine sensitive-Plasmodium falciparum 3D7 assessed as growth inhibition preincubated for 24 hrs followed by [3H]-hypoxanthine incorporation measured after 24 hrs by scintillation counting; type: functional, organism-based
# HepG2 = assay: Cytotoxicity against human HepG2 cells assessed as cell growth inhibition; type: cell-based
# [1] = Lipophilicity, log D of the compound by chromatographic method; type: physicochemical
Compound,pIC50 (Plasmodium falciparum),further results
CC(C)c1sc(N(C)CCO)nc1C(=O)Nc1ccc(F)cc1C(F)(F)F,5.49,
CC(C)c1sc(N2CCN(C)CC2)nc1C(=O)Nc1ccccc1C(F)(F)F,7.51,pIC50 (HepG2): 4.30
CC(C)c1sc(N2CCN(C)CC2)nc1C(=O)Nc1cc(F)cc(F)c1,< 5.30,
CC(C)c1sc(N2CCN(C)CC2)nc1C(=O)Nc1c(Cl)cc(F)cc1Cl,< 5.30,
Cc1ccc(NC(=O)c2nc(N3CCN(C)CC3)sc2C(C)C)c(Cl)c1,5.49,
CC(C)c1sc(N2CCN(C)CC2)nc1C(=O)Nc1cnccc1Cl,5.77,
CC(C)c1sc(N2CCN(C)CC2)nc1C(=O)Nc1ccccc1OC(F)(F)F,7.47,pIC50 (HepG2): < 4.00
CC(C)c1sc(N2CCN(C)CC2)nc1C(=O)Nc1ccc(F)cc1,< 5.30,
COc1ccccc1NC(=O)c1nc(N2CCN(C)CC2)sc1C(C)C,6.46,
CC(C)c1sc(N2CCOCC2)nc1C(=O)Nc1ccc(F)cc1C(F)(F)F,6.99,
CC(C)c1sc(N2CCN(C)CC2)nc1C(=O)Nc1ccccc1S(N)(=O)=O,< 5.30,
Cc1cc(F)ccc1NC(=O)c1nc(N2CCN(C)CC2)sc1C(C)C,6.14,
CC(C)c1sc(N2CCN(C)CC2)nc1C(=O)Nc1c(F)cccc1F,< 5.30,
CC(C)c1sc(N2CCN(C)CC2)nc1C(=O)Nc1ccccc1CO,< 5.30,
CC(C)c1sc(N2CCN(C)CC2)nc1C(=O)Nc1ccc(C(F)(F)F)cc1Cl,< 5.30,
CC(C)c1sc(N2CCN(C)CC2)nc1C(=O)Nc1ccccc1C#N,7.01,pIC50 (HepG2): 4.49
CC(C)c1sc(N2CCN(C)CC2)nc1C(=O)Nc1ccccc1Cl,7.24,pIC50 (HepG2): < 4.00
CC(C)c1sc(N(C)CCN(C)C)nc1C(=O)Nc1ccc(F)cc1C(F)(F)F,5.50,
CC(C)c1sc(N2CCN(C)CC2)nc1C(=O)Nc1ccccc1C(N)=O,< 5.30,
CC(C)c1sc(N2CCN(C)CC2)nc1C(=O)Nc1ccc(F)cc1Cl,7.24,pIC50 (HepG2): < 4.00
CC(C)c1sc(N2CCN(C)CC2)nc1C(=O)Nc1ccc(F)cc1F,5.92,
COCCN(C)c1nc(C(=O)Nc2ccc(F)cc2C(F)(F)F)c(C(C)C)s1,6.23,
CC(C)c1sc(N2CCN(C)CC2)nc1C(=O)Nc1cccnc1Cl,7.10,pIC50 (HepG2): < 4.00; chromatographic logD [1]: 7.8
CC(C)c1sc(N2CCN(C)CC2)nc1C(=O)Nc1ccccc1F,6.59,
CC(C)c1sc(N2CCN(C)CC2)nc1C(=O)Nc1cccc(Cl)n1,6.46,
CC(C)c1sc(N2CCN(C)CC2)nc1C(=O)Nc1c(Cl)cc(C(F)(F)F)cc1Cl,< 5.30,
CC(C)c1sc(N2CCN(C)CC2)nc1C(=O)Nc1cccnc1,< 5.30,
CC(C)c1sc(N2CCN(C)CC2)nc1C(=O)Nc1ncccc1Cl,< 5.30,
CC(C)c1sc(N2CCN(C)CC2)nc1C(=O)Nc1ccc(F)cc1C(F)(F)F,7.62,pIC50 (HepG2): 4.11; logD [1]: 9.06
